Patent US11814367B2, “Inhibitors of glycogen synthase 1 (GYS1) and methods of use thereof” (Maze Therapeutics, Inc., priority 2021, dated 2023)

Legend:
[1] = target: hGYS1 enzyme (recombinant hGYS1/GN1 protein) (Homo sapiens (Human), UniProt P13807); assay: GYS1 coupled enzyme assay (PK/LDH); format: biochemical; conditions: hGYS1/GN1 50 nM, UDP-Glucose 0.8 mM, G6P 1 mM; geometric mean of at least 2 runs
[2] = target: hGYS2 enzyme (recombinant hGYS2/GN1 protein) (Homo sapiens (Human), UniProt P54840); assay: GYS2 coupled enzyme assay (PK/LDH); format: biochemical; conditions: geometric mean of at least 2 assay runs on separate days, read-out: Avg_IC50
Outline: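 Read-out: NADH loss at 340 nm, read each minute for 10 min, slope normalized to controls, duplicate % inhibition fit to Hill (0–100). Enzyme: 200 nM hGYS2/GN1; substrate 2 mM UDP-glucose plus 0.2% glycogen and 2 mM G6P; pH 7.5 Tris, 2.5% DMSO.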

hGYS2 enzyme (recombinant hGYS2/GN1 protein), sequence (P54840 whole entry): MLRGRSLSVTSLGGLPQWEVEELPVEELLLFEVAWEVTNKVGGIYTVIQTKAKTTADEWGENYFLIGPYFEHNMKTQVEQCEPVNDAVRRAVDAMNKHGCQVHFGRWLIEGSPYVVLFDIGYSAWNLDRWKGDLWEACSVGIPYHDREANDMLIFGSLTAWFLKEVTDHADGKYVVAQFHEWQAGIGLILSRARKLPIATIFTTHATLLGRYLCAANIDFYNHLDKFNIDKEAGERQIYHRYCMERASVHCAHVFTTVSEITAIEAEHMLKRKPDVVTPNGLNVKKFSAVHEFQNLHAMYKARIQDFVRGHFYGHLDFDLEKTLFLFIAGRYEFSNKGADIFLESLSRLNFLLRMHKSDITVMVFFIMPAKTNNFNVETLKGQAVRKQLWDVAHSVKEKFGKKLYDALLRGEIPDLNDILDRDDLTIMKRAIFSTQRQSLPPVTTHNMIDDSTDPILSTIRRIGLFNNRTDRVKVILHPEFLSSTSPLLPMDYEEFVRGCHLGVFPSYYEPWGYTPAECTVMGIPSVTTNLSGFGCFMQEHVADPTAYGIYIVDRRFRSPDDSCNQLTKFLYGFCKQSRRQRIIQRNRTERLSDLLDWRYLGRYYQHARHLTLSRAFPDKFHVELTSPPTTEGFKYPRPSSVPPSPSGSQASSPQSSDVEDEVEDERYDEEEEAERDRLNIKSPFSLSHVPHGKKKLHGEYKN
hGYS2 enzyme (recombinant hGYS2/GN1 protein), sequence (P46976 whole entry partner): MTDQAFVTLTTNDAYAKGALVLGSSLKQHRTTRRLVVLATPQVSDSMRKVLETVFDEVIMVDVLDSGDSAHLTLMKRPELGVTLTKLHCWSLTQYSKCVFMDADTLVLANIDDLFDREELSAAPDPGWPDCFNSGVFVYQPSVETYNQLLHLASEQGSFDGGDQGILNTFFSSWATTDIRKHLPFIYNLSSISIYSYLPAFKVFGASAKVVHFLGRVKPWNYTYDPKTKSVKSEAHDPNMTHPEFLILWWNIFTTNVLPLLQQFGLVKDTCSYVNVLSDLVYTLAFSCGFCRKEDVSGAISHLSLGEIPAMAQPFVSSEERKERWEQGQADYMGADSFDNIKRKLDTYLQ
hGYS1 enzyme (recombinant hGYS1/GN1 protein), sequence (P13807 whole entry): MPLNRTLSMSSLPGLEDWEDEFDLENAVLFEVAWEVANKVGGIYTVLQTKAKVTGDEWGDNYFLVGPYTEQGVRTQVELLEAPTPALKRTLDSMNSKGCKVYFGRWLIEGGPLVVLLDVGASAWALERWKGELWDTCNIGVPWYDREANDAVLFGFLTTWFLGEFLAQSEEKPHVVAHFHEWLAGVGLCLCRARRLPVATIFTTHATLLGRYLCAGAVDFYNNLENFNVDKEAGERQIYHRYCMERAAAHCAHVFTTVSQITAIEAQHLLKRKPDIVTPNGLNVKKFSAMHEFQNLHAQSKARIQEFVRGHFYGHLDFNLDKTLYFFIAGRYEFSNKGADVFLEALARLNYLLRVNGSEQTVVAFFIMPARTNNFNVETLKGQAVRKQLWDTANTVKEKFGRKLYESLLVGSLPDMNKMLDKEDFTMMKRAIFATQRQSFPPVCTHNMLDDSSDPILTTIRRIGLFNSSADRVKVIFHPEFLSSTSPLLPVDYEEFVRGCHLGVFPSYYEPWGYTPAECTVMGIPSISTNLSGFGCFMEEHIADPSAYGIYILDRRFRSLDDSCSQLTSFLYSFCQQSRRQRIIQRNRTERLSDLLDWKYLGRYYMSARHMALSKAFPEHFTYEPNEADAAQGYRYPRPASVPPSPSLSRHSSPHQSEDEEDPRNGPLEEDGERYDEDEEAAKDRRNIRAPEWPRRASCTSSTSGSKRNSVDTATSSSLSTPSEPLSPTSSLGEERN
hGYS1 enzyme (recombinant hGYS1/GN1 protein), sequence (P46976 whole entry partner): as the sequence (P46976 whole entry partner) above

Row | SMILES | IC50 [1] [nM] | IC50 [2] [µM]
1 | CC(C)c1ccc([C@@H](NC(=O)[C@@H]2C[C@@H](F)CN2C(=O)Cc2cnnn2C)c2ccccc2)cc1 (stereo in doubt) [Compound 228, (2RS,4R)-4-fluoro-1-[2-(1-methyl-1H-1,2,3-triazol-5-yl)acetyl]-N-[(S)-phenyl[4-(propan-2-yl)phenyl]methyl]pyrrolidine-2-carboxamide] | 77 | > 100
2 | CC(=O)N[C@@H](CC(N)=O)C(=O)N1C[C@H](F)C[C@H]1C(=O)N[C@@H](c1ccccc1)c1ccc(C(C)C)c(F)c1 [Compound 765, (2S,4R)-1-[(2S)-3-carbamoyl-2-acetamidopropanoyl]-4-fluoro-N-[(S)-[3-fluoro-4-(propan-2-yl)phenyl](phenyl)methyl] pyrrolidine-2-carboxamide] | 47 | > 100
3 | CC(=O)N[C@H](CC(N)=O)C(=O)N1C[C@H](F)C[C@H]1C(=O)N[C@@H](c1ccccc1)c1ccc(C(C)C)cc1 [Compound 209, (2S,4R)-1-[(2R)-3-carbamoyl-2-acetamidopropanoyl]-4-fluoro-N-[(S)-phenyl[4-(propan-2-yl)phenyl]methyl]pyrrolidine-2-carboxamide] | 91 | > 100
4 | CC(C)c1ccc([C@@H](NC(=O)[C@@H]2C[C@@H]3C[C@@H]3N2C(=O)Cc2cnn[nH]2)c2ccccc2)cc1F [Compound 324, (1S,3S,5S)-N-[(S)-[3-fluoro-4-(propan-2-yl)phenyl](phenyl)methyl]-2-[2-(1H-1,2,3-triazol-5-yl)acetyl]-2-azabicyclo[3.1.0]hexane-3-carboxamide] | 142 | > 100
5 | CC(C)c1ccc([C@@H](NC(=O)[C@@H]2C[C@@H](F)CN2C(=O)C(C)n2ccccc2=O)c2ccccc2)cc1 (stereo partly drawn) [Compound 73, (2S,4R)-4-fluoro-1-[2-(2-oxo-1,2-dihydropyridin-1-yl)propanoyl]-N-[(S)-phenyl[4-(propan-2-yl)phenyl]methyl]pyrrolidine-2-carboxamide] | 105 | > 100
6 | CC(C)c1ccc([C@@H](NC(=O)[C@@H]2C[C@@H](F)CN2C(=O)CCc2cncnc2)c2ccccc2)cc1 [Compound 60, (2S,4R)-4-fluoro-N-[(S)-phenyl[4-(propan-2-yl)phenyl]methyl]-1-[3-(pyrimidin-5-yl)propanoyl]pyrrolidine-2-carboxamide] | 188 | > 100
7 | CC(C)c1ccc([C@@H](NC(=O)[C@@H]2C[C@@H](F)CN2C(=O)CS(C)(=O)=O)c2ccccc2)cc1 [Compound 14, (2S,4R)-4-fluoro-1-(2-methanesulfonylacetyl)-N-[(S)-phenyl[4-(propan-2-yl)phenyl]methyl]pyrrolidine-2-carboxamide] | 129 | > 100
8 | CC(C)c1ccc([C@H](NC(=O)[C@@H]2C[C@@H](F)CN2C(=O)Cc2cnn[nH]2)c2ccccc2)cc1Cl [Compound 671, (2S,4R)-N-[(R)-[3-chloro-4-(propan-2-yl)phenyl](phenyl)methyl]-4-fluoro-1-[2-(1H-1,2,3-triazol-5-yl)acetyl]pyrrolidine-2-carboxamide] | 849 | > 100
9 | CC(C)c1ccc([C@@H](NC(=O)[C@@H]2C[C@@H](F)CN2C(=O)Cc2ccnn2C)c2ccccc2)cc1F [Compound 337, (2S,4R)-4-fluoro-N-[(S)-[3-fluoro-4-(propan-2-yl)phenyl](phenyl)methyl]-1-[2-(1-methyl-1H-pyrazol-5-yl)acetyl]pyrrolidine-2-carboxamide] | 27 | > 100
10 | CC(C)c1ccc([C@@H](NC(=O)[C@@H]2C[C@@H](F)CN2C(=O)Cc2nnc[nH]2)c2ccccc2)cc1 [Compound 194, (2S,4R)-4-fluoro-N-[(S)-phenyl[4-(propan-2-yl)phenyl]methyl]-1-[2-(4H-1,2,4-triazol-3-yl)acetyl]pyrrolidine-2-carboxamide] | 27 | > 100
